Source: patent publication US20100099712A1, “SUBSTITUTED PYRAZOLINE COMPOUNDS WITH ACAT INHIBITION ACTIVITY” (LABORATORIOS DEL DR. ESTEVE, S.A., priority 2007, published 2010)
Where two headings read alike, the source gives them in different places.

Columns and labels:
[1] = target: T1, ACAT 2 (Acyl CoA-Cholesterol Acyltransferase 2) (Rattus norvegicus, UniProt Q7TQM4); assay: In-vitro determination of inhibition of ACAT 2 (hepatic microsomes, [14C]-Palmitoyl CoA); type: biochemical, Wistar rats
T1 construct: Briefly hepatic microsomes were prepared from the Wistar rats; from tissue; host or cells: liver (hepatic microsomes) of Wistar rats
T1 sequence (Q7TQM4 1-524): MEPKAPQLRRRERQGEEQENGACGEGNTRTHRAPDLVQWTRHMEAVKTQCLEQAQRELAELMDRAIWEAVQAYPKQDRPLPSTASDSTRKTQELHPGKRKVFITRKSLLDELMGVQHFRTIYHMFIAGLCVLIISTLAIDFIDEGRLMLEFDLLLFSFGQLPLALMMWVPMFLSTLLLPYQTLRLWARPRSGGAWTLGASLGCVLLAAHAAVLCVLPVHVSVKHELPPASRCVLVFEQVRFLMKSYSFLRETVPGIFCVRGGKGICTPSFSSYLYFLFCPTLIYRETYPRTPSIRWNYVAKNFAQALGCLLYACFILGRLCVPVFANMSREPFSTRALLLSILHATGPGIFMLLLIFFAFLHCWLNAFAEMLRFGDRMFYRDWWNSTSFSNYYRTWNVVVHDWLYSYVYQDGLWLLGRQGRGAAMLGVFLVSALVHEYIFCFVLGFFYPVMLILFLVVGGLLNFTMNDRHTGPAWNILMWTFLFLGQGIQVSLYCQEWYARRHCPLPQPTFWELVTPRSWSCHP
Method: II. In-vitro Determination of Inhibition of ACAT 2 (Acyl CoA-Cholesterol Acyltransferase 2)
The in-vitro determination of the inhibition of the enzyme ACAT 2 by the compounds of the invention is carried out in principle as described in the publication of Largis EE, Wang CH, DeVries VG and Schaffer SA (1989), “A Novel inhibitor of ACAT-catalyzed cholesterol esterification and cholesterol absorption”, J. Lipid Res. 30, 681-689, (1989), whereby hepatic microsomes are used. The radio-substrate used is [^14C]-Palmitoyl CoA. The respective parts of the description are hereby incorporated by reference and forms part of the present disclosure.
Briefly hepatic microsomes were prepared from the Wistar rats. Enzyme inhibition experiments were performed in presence of 18 μM [^14C]-Palmitoyl CoA as substrate. The vehicle used was 1% DMSO. Compounds to be tested were present at various concentrations and the incubation buffer used was 0.2 M Phosphate buffer, pH 7.4 at 25° C. After a 15 minutes preincubation period at 37° C. an incubation period of 10 minutes at 37° C. followed. Quantification of [^14C]Cholesterol ester was done by column chromatography.

[2] = target: T1, ACAT 2 (Acyl CoA-Cholesterol Acyltransferase 2); conditions: reported value; read-out: ACAT 2 reported IC50 of reference compound; cited from earlier work
[3] = target: T2, ACAT 1 (Acyl CoA-Cholesterol Acyltransferase 1) (Homo sapiens, UniProt P35610); assay: In-vitro determination of inhibition of ACAT 1 (microsomal membranes of U937 cells differentiated to macrophages, [14C]-Palmitoyl CoA); type: biochemical; conditions: for IC50: U937 macrophage microsomes; for inhibition at 30 µM: 3 × 10^−5 M; for inhibition at 30 µM / inhibition at 3 µM / inhibition at 100 µM / inhibition at 10 µM / inhibition at 1 µM: read-out: ACAT 1 Inhibition (%) at various concentration of example; for inhibition at 3 µM: 3 × 10^−6 M; for inhibition at 100 µM: 10^−4 M; for inhibition at 10 µM: 10^−5 M; for inhibition at 1 µM: 10^−6 M
T2 construct: Cells were collected, homogenized and microsomal membranes prepared; endogenous in cells; host or cells: U937 human monocyte cell line differentiated to macrophages with PMA; microsomal membranes
T2 sequence (P35610 1-550): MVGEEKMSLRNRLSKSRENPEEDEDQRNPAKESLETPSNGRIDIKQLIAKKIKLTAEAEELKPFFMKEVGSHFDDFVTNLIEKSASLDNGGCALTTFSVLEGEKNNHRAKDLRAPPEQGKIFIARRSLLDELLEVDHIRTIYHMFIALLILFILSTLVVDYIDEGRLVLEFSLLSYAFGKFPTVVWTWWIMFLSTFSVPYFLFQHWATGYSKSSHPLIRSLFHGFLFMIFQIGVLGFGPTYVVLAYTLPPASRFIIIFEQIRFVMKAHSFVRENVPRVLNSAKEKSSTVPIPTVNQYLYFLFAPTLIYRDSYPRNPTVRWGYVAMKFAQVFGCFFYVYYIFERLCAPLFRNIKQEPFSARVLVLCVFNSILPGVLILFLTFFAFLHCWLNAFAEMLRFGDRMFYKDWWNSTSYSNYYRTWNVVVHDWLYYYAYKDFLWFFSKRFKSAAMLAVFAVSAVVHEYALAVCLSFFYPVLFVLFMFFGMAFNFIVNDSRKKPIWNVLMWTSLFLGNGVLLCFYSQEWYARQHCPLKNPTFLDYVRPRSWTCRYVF
Method: I. In-vitro Determination of Inhibition of ACAT 1 (Acyl CoA-Cholesterol Acyltransferase 1)
The in-vitro determination of the inhibition of the enzyme ACAT 1 by the compounds of the invention is carried out in principle as described:
Human histiocytic monocyte cell line, U937 was differentiated to macrophages with Phorbol 12-myristate 13-acetate at a final concentration of 30 ng/mL for 72 hr. Cells were collected, homogenized and microsomal membranes prepared. Enzyme inhibition experiments were performed in the presence of 20 μM [^14]-Palmitoyl CoA as substrate. The vehicle used was 1% DMSO. Compounds to be tested were present at various concentrations and the incubation buffer used was 0.2M KH2PO4, 1 mM EDTA, 0.15% BSA, pH 7.4. After a 15 minutes preincubation period at 37° C. an incubation period of 1 hour at 37° C. followed. Quantification of [^14C]Cholesterol ester was done by column chromatography.

[4] = second ACAT 2 table, value marked * estimated from 2 different experiments
[5] = 3 × 10^−6 M, first ACAT 2 table, read-out: ACAT 2 Inhibition (%) at various concentration of example
[6] = 3 × 10^−6 M, second ACAT 2 table, column 4, read-out: ACAT 2 Inhibition (%) at various concentration of example
[7] = 3 × 10^−7 M, first ACAT 2 table, read-out: ACAT 2 Inhibition (%) at various concentration of example
[8] = 10^−5 M, first ACAT 2 table, read-out: ACAT 2 Inhibition (%) at various concentration of example
[9] = 10^−5 M, second ACAT 2 table, column 3, read-out: ACAT 2 Inhibition (%) at various concentration of example
[10] = 10^−6 M, first ACAT 2 table, read-out: ACAT 2 Inhibition (%) at various concentration of example

Row | Structure (SMILES) | IC50 ([1]; first ACAT 2 table) | IC50 [1, 4] | IC50 [3] | inhibition at 3 µM [1, 5] | inhibition at 3 µM [1, 6] | inhibition at 0.3 µM [1, 7] | inhibition at 10 µM [1, 8] | inhibition at 10 µM [1, 9] | inhibition at 1 µM [1, 10] | inhibition at 30 µM [3] | inhibition at 3 µM [3] | inhibition at 100 µM [3] | inhibition at 10 µM [3] | inhibition at 1 µM [3] | also measured
1 | CC[C@H](C)C(=O)O[C@H]1C[C@@H](C)C=C2C=C[C@H](C)[C@H](CC[C@@H]3C[C@@H](O)CC(=O)O3)[C@H]21 [Lovastatin, reference compound] | 22.7 µM | 12.5 µM | 9.6 µM | – | – | – | – | – | – | – | – | – | – | – | IC50 [2]: 29 µM
2 | CC1C(c2ccccc2)C(C(=O)O)=NN1c1ccc(Cl)cc1Cl (stereo not shown) [Example 3, 1-(2,4-Dichloro-phenyl)-5-methyl-4-phenyl-4,5-dihydro-1H-pyrazole-3-carboxylic acid] | 0.82 µM | 2 µM | 4.84 µM | 75% | 71% | 29% | 88% | 86% | 56% | 74% | 50% | 86% | 64% | 17% | inhibition at 30 µM ([1]; 3 × 10^−5 M, first ACAT 2 table, read-out: ACAT 2 Inhibition (%) at various concentration of example): 92%; inhibition at 3 µM ([1]; 3 × 10^−6 M, second ACAT 2 table, repeated head, column 6, read-out: ACAT 2 Inhibition (%) at various concentration of example): 40%; inhibition at 10 µM ([1]; 10^−5 M, second ACAT 2 table, repeated head, column 5, read-out: ACAT 2 Inhibition (%) at various concentration of example): 65%
3 | C[C@@H]1[C@@H](c2ccccc2)C(C(=O)NN2CCCCC2)=NN1c1ccc(Cl)cc1Cl (racemic) [Example 1, 1-(2,4-Dichlorophenyl)-5-methyl-4-phenyl-4,5-dihydro-1H-pyrazole-3-carboxylic acid piperidin-1-ylamide] | 1.28 µM | < 3 µM | 9.66 µM | 70% | 74% | 19% | 94% | 93% | 44% | 72% | 38% | 55% | 65% | 14% | inhibition at 30 µM ([1]; 3 × 10^−5 M, second ACAT 2 table, read-out: ACAT 2 Inhibition (%) at various concentration of example): 97%; inhibition at 100 µM ([1]; 10^−4 M, second ACAT 2 table, read-out: ACAT 2 Inhibition (%) at various concentration of example): 101%; inhibition at 0.1 µM ([1]; 10^−7 M, first ACAT 2 table, read-out: ACAT 2 Inhibition (%) at various concentration of example): -3%
4 | C[C@@H]1[C@@H](c2ccccc2)C(C(=O)NN2CCCCC2)=NN1c1ccc(Cl)cc1Cl.Cl (racemic) [Example 2, 1-(2,4-Dichloro-phenyl)-5-methyl-4-phenyl-4,5-dihydro-1H-pyrazole-3-carboxylic acid piperidin-1-ylamide; Hydrochloride] | 1.42 µM | – | – | – | – | – | – | – | – | – | – | – | – | – | ACAT 2 Inhibition (%) at various concentration of example ([1]; 3 × 10^−5 M, second ACAT 2 table): 96%; ACAT 2 Inhibition (%) at various concentration of example ([1]; 3 × 10^−6 M, first ACAT 2 table): 70%; ACAT 2 Inhibition (%) at various concentration of example ([1]; 3 × 10^−7 M, first ACAT 2 table): 17%; ACAT 2 Inhibition (%) at various concentration of example ([1]; 10^−4 M, second ACAT 2 table): 100%; ACAT 2 Inhibition (%) at various concentration of example ([1]; 10^−5 M, first ACAT 2 table): 90%; ACAT 2 Inhibition (%) at various concentration of example ([1]; 10^−6 M, first ACAT 2 table): 39%; ACAT 2 Inhibition (%) at various concentration of example ([1]; 10^−7 M, first ACAT 2 table): 4%
